# According to US7456191B2, “N-Aryl-sulfoximine-substituted pyrimidines as CDK-and/or VEGF inhibitors, their production and use as pharmaceutical agents” (Schering AG, priority 2005, dated 2008):
# How the values were obtained:
# CDK2/CycE = target: T1, CDK2/CycE (Homo sapiens, UniProt P24941); experiment: CDK2/CycE kinase assay; format: biochemical; settings: histone IIIS substrate, 0.5 μm ATP, 33P filter assay
# T1 construct: GST; purchased ProQinase GmbH, Freiburg; host or cells: baculovirus-infected insect cells (Sf9)
# Description: Recombinant CDK2- and CycE-GST-fusion proteins, purified from baculovirus-infected insect cells (Sf9), were purchased by ProQinase GmbH, Freiburg. Histone IIIs, which was used as a kinase substrate, was purchased by the Sigma Company.
# (§1) CDK2/CycE (50 ng/measuring point) was incubated for 15 minutes at 22° C. in the presence of various concentrations of test substances (0 μm, as well as within the range of 0.01-100 μm) in assay buffer [50 mmol of tris/HCl, pH 8.0, 10 mmol of MgCl2, 0.1 mmol of Na ortho-vanadate, 1.0 mmol of dithiothreitol, 0.5 μm of adenosine triphosphate (ATP), 10 μg/measuring point of histone IIIS, 0.2 μCi/measuring point of ^33P-gamma ATP, 0.05% NP40, 12.5% dimethyl sulfoxide]. The reaction was stopped by adding EDTA solution (250 mmol, pH 8.0, 14 μl/measuring point).
# (§2) From each reaction batch, 10 μl was applied to P30 filter strips (Wallac Company), and non-incorporated ^33P-ATP was removed by subjecting the filter strips to three washing cycles for 10 minutes each in 0.5% phosphoric acid. After the filter strips were dried for one hour at 70° C., the filter strips were covered with scintillator strips (MeltiLex™ A, Wallac Company) and baked for one hour at 90° C. The amount of incorporated ^33P (substrate phosphorylation) was determined by scintillation measurement in a gamma-radiation measuring device (Wallac).
# CDK1/CycB = target: T2, CDK1/CycB (Homo sapiens, UniProt P06493); experiment: CDK1/CycB kinase assay; format: biochemical; settings: histone IIIS substrate, 0.5 μm ATP, 33P filter assay
# T2 construct: GST; purchased ProQinase GmbH, Freiburg; host or cells: baculovirus-infected insect cells (Sf9)
# T2 sequence (P06493 whole entry): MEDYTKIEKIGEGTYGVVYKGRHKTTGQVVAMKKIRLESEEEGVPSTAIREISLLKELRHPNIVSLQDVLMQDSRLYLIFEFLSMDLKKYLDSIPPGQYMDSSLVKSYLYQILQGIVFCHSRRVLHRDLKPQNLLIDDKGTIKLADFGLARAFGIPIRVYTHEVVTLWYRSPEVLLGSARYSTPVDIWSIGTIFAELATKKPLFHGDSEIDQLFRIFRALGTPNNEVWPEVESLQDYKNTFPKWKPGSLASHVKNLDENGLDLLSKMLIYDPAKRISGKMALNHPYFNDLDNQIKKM
# T2 sequence (P14635 whole entry partner): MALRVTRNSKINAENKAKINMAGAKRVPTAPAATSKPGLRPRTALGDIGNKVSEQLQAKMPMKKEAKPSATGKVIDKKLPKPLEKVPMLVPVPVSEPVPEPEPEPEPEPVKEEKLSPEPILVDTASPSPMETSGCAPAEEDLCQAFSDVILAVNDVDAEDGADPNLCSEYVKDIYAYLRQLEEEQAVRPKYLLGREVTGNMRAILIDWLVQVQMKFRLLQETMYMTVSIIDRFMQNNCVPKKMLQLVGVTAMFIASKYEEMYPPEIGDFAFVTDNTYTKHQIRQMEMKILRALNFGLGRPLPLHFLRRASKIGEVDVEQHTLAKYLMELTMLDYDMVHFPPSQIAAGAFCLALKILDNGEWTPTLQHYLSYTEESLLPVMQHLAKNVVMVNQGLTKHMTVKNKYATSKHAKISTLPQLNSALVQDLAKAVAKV
# Description: Recombinant CDK1- and CycB-GST-fusion proteins, purified from baculovirus-infected insect cells (Sf9), were purchased from ProQinase GmbH, Freiburg. Histone IIIS, used as a kinase substrate, is available commercially from the Sigma Company.
# as §1, with “CDK1/CycB (200” for “CDK2/CycE (50”
# as §2, with “33P-ATP” for “^33P-ATP”, “33P” for “^33P”
# [1] = target: T3, VEGF receptor tyrosine kinase-2 (Homo sapiens, UniProt P35968); experiment: VEGF receptor-2 kinase assay; format: biochemical; settings: poly-(Glu4Tyr) substrate, 8 μmol ATP, 33P filter assay; read-out: VEGF-R2 IC50
# T3 construct: GST; made in house; host or cells: baculovirus-infected insect cells (Sf9)
# T3 sequence (P35968 20-1356): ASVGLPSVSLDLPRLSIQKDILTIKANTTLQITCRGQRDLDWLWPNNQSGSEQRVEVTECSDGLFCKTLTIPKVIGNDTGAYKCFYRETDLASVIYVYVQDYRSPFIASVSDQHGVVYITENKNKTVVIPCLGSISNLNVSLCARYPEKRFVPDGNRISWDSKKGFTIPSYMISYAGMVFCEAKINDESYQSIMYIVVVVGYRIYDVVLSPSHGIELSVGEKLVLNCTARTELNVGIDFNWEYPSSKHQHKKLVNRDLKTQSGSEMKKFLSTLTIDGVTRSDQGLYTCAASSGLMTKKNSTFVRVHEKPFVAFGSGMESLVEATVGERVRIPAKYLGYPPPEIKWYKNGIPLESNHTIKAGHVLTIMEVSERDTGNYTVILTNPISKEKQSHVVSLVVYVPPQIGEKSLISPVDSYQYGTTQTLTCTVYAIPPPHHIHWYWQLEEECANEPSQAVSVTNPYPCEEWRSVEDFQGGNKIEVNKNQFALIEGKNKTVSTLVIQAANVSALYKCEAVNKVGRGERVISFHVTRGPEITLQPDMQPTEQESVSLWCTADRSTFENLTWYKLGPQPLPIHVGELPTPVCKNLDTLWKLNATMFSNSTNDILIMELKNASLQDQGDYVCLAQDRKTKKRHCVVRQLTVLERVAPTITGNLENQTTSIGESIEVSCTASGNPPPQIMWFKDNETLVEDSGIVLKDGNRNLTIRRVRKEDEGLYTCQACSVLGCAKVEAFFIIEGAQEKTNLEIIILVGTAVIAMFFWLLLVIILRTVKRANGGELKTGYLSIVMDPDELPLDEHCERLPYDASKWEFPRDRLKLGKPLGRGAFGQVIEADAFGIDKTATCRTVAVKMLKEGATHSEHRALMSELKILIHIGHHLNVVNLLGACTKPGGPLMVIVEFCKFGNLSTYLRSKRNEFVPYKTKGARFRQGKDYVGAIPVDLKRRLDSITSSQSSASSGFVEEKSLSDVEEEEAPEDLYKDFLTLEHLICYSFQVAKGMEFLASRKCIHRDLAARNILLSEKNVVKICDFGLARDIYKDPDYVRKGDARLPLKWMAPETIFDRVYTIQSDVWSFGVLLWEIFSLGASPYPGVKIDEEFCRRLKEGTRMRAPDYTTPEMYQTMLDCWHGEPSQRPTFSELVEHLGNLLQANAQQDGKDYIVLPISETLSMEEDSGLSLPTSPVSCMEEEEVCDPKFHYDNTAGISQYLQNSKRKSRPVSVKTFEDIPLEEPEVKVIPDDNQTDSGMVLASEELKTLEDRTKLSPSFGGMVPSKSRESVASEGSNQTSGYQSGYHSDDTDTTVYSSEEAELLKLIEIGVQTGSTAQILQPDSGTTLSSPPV
# Description: VEGF Receptor-2 Kinase Assay
# Recombinant VEGF receptor tyrosine kinase-2 was purified as a GST fusion protein from baculovirus-infected insect cells (Sf9). Poly-(Glu4Tyr), which was used as a kinase substrate, was purchased by the Sigma Company. VEGF receptor tyrosine kinase (90 ng/measuring point) was incubated for 10 minutes at 22° C. in the presence of various concentrations of test substances (0 μm, as well as within the range of 0.001-30 μm) in 30 μl of assay buffer [40 mmol of Tris/HCl, […], 10 mmol of MgCl2, 1 mmol of MnCl2, 3 μmol of Na ortho-vanadate, 1.0 mmol of dithiothreitol, 8 μmol of adenosine trisphosphate (ATP), 27 μg/measuring point of poly-(Glu4Tyr), 0.2 μCi/measuring point of 33P-gamma ATP, 1% dimethyl sulfoxide]. The reaction was stopped by adding EDTA solution (250 mmol, pH 7.0, 10 μl/measuring point).
# as §2, with “33P-ATP” for “^33P-ATP”, “33P” for “^33P”
# [2] = system: MCF7, hormone-independent human breast cancer cells; experiment: Proliferation assay, MCF7; format: cell-based; settings: 96 h, 4 days, crystal violet
# Source text: (§3) Cultivated human tumor cells (MCF7, hormone-independent human breast cancer cells, related to ATCC HTB22; NCI-H460, human non-small-cell lung cancer cells, ATCC HTB-177; DU 145, hormone-independent human prostate cancer cells, ATCC HTB-81; MaTu-MDR, hormone-independent, multiple pharmaceutical agent-resistant human breast cancer cells, EPO-GmbH, Berlin) were flattened out at a density of about 5000 cells/measuring point, depending on the growth rate of the respective cells, in a 96-well multititer plate in 200 μl of the corresponding growth medium. After 24 hours, the cells of one plate (zero-point plate) were colored with crystal violet (see below), while the medium of the other plates was replaced by fresh culture medium (200 μl), to which the test substances were added in various concentrations (0 μm, as well as in the range of 0.01-30 μm; the final concentration of the solvent dimethyl sulfoxide was 0.5%). The cells were incubated for 4 days in the presence of test substances. The cell proliferation was determined by coloring the cells with crystal violet: the cells were fixed by adding 20 μl/measuring point of an 11% glutaric aldehyde solution for 15 minutes at room temperature. After three washing cycles of the fixed cells with water, the plates were dried at room temperature. The cells were colored by adding 100 μl/measuring point of a 0.1% crystal violet solution (the pH was set at 3 by adding acetic acid). After three washing cycles of the colored cells with water, the plates were dried at room temperature. The dye was dissolved by adding 100 μl/measuring point of a 10% acetic acid solution. The extinction was determined by photometry at a wavelength of 595 nm. The change of cell growth, in percent, was calculated by normalization of the measured values to the extinction values of the zero-point plate (=0%) and the extinction of the untreated (0 μm) cells (=100%).
# [3] = system: NCI-H460, human non-small-cell lung cancer cells; experiment: Proliferation assay, H460; format: cell-based; settings: NCI-H460, 96 h, 4 days, crystal violet
# Source text: as §3
# [4] = system: DU 145, hormone-independent human prostate cancer cells; experiment: Proliferation assay, DU145; format: cell-based; settings: DU-145, 96 h, 4 days, crystal violet
# Source text: as §3
# MaTu-ADR = experiment: Proliferation assay, MaTu-ADR; format: cell-based; settings: Homo sapiens, 96 h; MaTu-ADR cells, 4 days, crystal violet
# Human Carboanhydrase-2 = Human Carboanhydrase-2 (Homo sapiens, UniProt P00918); experiment: Carboanhydrase assay; format: biochemical; settings: 4-nitrophenyl acetate hydrolysis, 400 nm; read-out: Inhibition of Human Carboanhydrase-2 IC50
# Description: 2 μl of the test compounds, dissolved in DMSO (100× the final concentration), in a concentration range of 0.03-10 μm (final), was pipetted as 4× determinations into the holes of a 96-hole microtiter plate. Holes that contained the solvent without test compounds were used as reference values (1. Holes without carboanhydrase for correction of the non-enzymatic hydrolysis of the substrate, and 2. Holes with carboanhydrase for determining the activity of the non-inhibited enzyme).
# 188 μl of assay buffer (10 mmol of Tris/HCl, pH 7.4, 80 mmol of NaCl), with or without 3 units/hole on carboanhydrase I or II, was pipetted into the holes of the microtiter plate.
Structure (SMILES),IC50 (CDK2/CycE) [nM],IC50 (CDK1/CycB) [nM],IC50 [1] [nM],IC50 [2] [nM],IC50 [3] [nM],IC50 [4] [nM],IC50 (Human Carboanhydrase-2) [nM],IC50 (MaTu-ADR) [nM]
"C#CCOc1nc(Nc2ccc(N=S(C)(C)=O)cc2)ncc1C(F)(F)F [Example 9, S,S-Dimethyl-N-(4-{[4-(prop-2-yn-1-yloxy)-5-(trifluoromethyl)pyrimidin-2-yl]amino}phenyl)sulfoximide]",260,670,140,–,–,–,–,–
"Cc1cccc(Nc2nc(Nc3ccc(N=S(C)(C)=O)cc3)ncc2Br)n1 [Example 5, N-[4-({5-Bromo-4-[(6-methyl-2-pyridyl)amino]pyrimidin-2-yl}amino)phenyl]-S,S-dimethylsulfoximide]",340,490,180,700,–,–,–,–
"CS(C)(=O)=Nc1ccc(Nc2ncc(Br)c(N[C@H]3CCCC[C@@H]3O)n2)cc1 [Example 12, N-{4-[(5-Bromo-4-{[(1S,2S)-2-hydroxycyclohexyl]amino}pyrimidin-2-yl)amino]phenyl}S,S-dimethylsulfoximide]",460,–,280,–,–,–,–,–
"C#CCNc1nc(Nc2ccc(N=S(C)(C)=O)cc2)ncc1C(F)(F)F [Example 10, S,S-Dimethyl-N-(4-{[4-(prop-2-yn-1-ylamino)-5-(trifluoromethyl)pyrimidin-2-yl]amino}phenyl)sulfoximide]",220,400,160,–,–,–,–,–
"C[C@H](CO)Nc1nc(Nc2ccc(N=S(C)(C)=O)cc2)ncc1[N+](=O)[O-] [Example 7, N-{4-[(4-{[(R)-2-Hydroxy-1-methylethyl]amino}-5-nitropyrimidin-2-yl)amino]phenyl}-S,S-dimethylsulfoximide]",–,–,200,–,–,–,–,–

# The next molecules have a lower IC50 [1] than those just listed; values first:
IC50 (CDK2/CycE) [nM],IC50 (CDK1/CycB) [nM],IC50 [1] [nM],IC50 [2] [nM],IC50 [3] [nM],IC50 [4] [nM],IC50 (Human Carboanhydrase-2) [nM],Structure (SMILES),IC50 (MaTu-ADR) [nM]
200,–,88,2200,–,–,–,"CC(C)[C@H](CO)Nc1nc(Nc2ccc(N=S(C)(C)=O)cc2)ncc1I [Example 4, N-{4-[(4-{[(R)-1-(Hydroxymethyl)-2-methylpropyl]amino}-5-iodopyrimidin-2-yl)amino]phenyl}-S,S-dimethylsulfoximide]",–
27,130,74,400,500,600,> 10000,"C[C@@H](Nc1nc(Nc2ccc(N=S(C)(C)=O)cc2)ncc1Br)C(C)(C)O [Example 1, N-{4-[(5-Bromo-4-{[(R)-2-hydroxy-1,2-dimethylpropyl]amino}-pyrimidin-2-yl)amino]phenyl}-S,S-dimethylsulfoximide]",800
–,–,73,500,400,300,–,"CS(C)(=O)=Nc1ccc(Nc2ncc(Br)c(Nc3ccccc3)n2)cc1 [Example 6, N-{4-[(4-Anilino-5-bromopyrimidin-2-yl)amino]phenyl}-S,S-dimethylsulfoximide]",300
680,–,54,–,–,–,–,"CS(C)(=O)=Nc1ccc(Nc2ncc(Br)c(NC3(CO)CCCC3)n2)cc1 [Example 11, N-{4-[(5-Bromo-4-{[1-(hydroxymethyl)cyclopentyl]amino}pyrimidin-2-yl)amino]phenyl}-S,S-dimethylsulfoximide]",–
12,28,44,300,700,1000,> 10000,"C[C@@H](O)[C@@H](C)Oc1nc(Nc2ccc(N=S(C)(C)=O)cc2)ncc1Br [Example 3, N-{4-[(5-Bromo-4-{[(1R,2R)-2-hydroxy-1-methylpropyl]oxy}-pyrimidin-2-yl)amino]phenyl}S,S-dimethylsulfoximide]",500
–,–,42,–,–,–,–,"CS(C)(=O)=Nc1ccc(Nc2ncc(Br)c(N[C@@H]3CCOC3)n2)cc1 [Example 13, N-[4-({5-Bromo-4-[(R)-(2,3,4,5-tetrahydrofuran-3-yl)amino]pyrimidin-2-yl}amino)phenyl]-S,S-dimethylsulfoximide]",–
11,32,27,600,800,1000,> 10000,"C[C@@H](O)[C@@H](C)Nc1nc(Nc2ccc(N=S(C)(C)=O)cc2)ncc1Br [Example 2, N-{4-[(5-Bromo-4-{[(1R,2R)-2-hydroxy-1-methylpropyl]amino}-pyrimidin-2-yl)amino]phenyl}-S,S-dimethylsulfoximide]",900
